Test results: patent US12187722B2, “Small molecule inhibitors of TEAD transcription factors” (The General Hospital Corporation, priority 2019, dated 2025)

Target: TEAD2 (Homo sapiens (Human), UniProt Q15562)
Assay: In vitro palmitoylation (TEAD2 autopalmitoylation, streptavidin blot)
Assay type: biochemical
Conditions: compound at 10 μM; Table 3
Experimental: Recombinant GST-TEAD2 or His6TEAD2 (500 ng) protein was pre-incubated with the compounds at indicated concentrations for 15 min. and then incubated with 1 μM of alkyne palmitoyl-5 CoA (Cayman Chemical) for 30 min or 50 mM MES, pH 6.4, followed by Click reaction with biotin-azide as previously described (Zheng, B. et al., J. Am. Chem. Soc., 2013, 135, 7082-7085). Click reaction was performed with 100 μM biotin-azide, 1 mM tris(2-carboxyethyl) phosphine hydrochloride (TCEP), 100 μM tris[(1-benzyl-1H-1,2,3-triazol-4-yl) methyl] amine (TBTA) and 1 mM CuSO4 for 1 h at RT.
The reactions were terminated by the addition of 12 μL of 6×SDS-sample loading buffer (50 mM Tris-HCl, pH 6.8, 6% SDS, 48% Glycerol, 0.03% Bromophenol Blue, 30 mM EDTA, 9% MeSH). Samples were analysed by SDS-PAGE and Western blot was performed by probing with streptavidin HRP and histidine HRP antibodies independently. Bands intensity obtained from streptavidin blot were quantified using BIORAD, Gel doc system and the percentage of inhibition of Tead2 auto palmitoylation is determined by comparing to the DMSO control treated samples.
These compounds were tested for activity in inhibiting TEAD2 palmitoylation in the assay described above.

Chain of TEAD2 (Q15562 whole entry): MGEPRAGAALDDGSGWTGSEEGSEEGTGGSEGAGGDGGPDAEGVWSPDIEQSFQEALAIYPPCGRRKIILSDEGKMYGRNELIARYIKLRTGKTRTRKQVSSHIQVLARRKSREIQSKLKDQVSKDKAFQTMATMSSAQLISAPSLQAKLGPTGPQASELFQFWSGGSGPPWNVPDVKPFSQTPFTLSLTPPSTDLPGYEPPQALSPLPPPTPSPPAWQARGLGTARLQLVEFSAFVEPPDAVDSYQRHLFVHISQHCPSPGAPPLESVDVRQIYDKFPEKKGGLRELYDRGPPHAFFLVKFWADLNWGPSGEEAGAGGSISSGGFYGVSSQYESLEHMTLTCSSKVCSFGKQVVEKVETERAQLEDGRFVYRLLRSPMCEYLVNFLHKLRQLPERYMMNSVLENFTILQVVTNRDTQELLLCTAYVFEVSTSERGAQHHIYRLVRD

Compound: COc1ccc(Nc2cnc(Oc3ccc(C4CCCCC4)cc3Cl)cc2C)c(C(=O)O)c1 [CP-599]
- inhibition at 10 µM: 57%

Compound: COc1ccc(Nc2ccc(Oc3ccc(OC(F)(F)F)cc3Cl)nc2)c(C(=O)O)c1 [CP-600]
- inhibition at 10 µM: 37%

Compound: COc1ccc(Nc2ccc(Oc3ccc(C(F)(F)F)cc3Cl)nc2)c(C(=O)O)c1 [CP-601]
- inhibition at 10 µM: 46%

Compound: COc1ccc(Nc2cnc(N(C)c3ccc(C(F)(F)F)cc3)nc2)c(C(=O)O)c1 [CP-602]
- inhibition at 10 µM: 5%

Compound: COc1ccc(Nc2ccc(N(C)c3ccc(C4CCC(C(F)(F)F)CC4)cc3)cc2)c(C(=O)O)c1 (stereo not shown) [CP-603]
- inhibition at 10 µM: 83%

Compound: COc1ccc(Nc2ccc(N(C)c3ccc(C(F)(F)F)cc3)cc2)c(C(N)=O)c1 [CP-605]
- inhibition at 10 µM: 47%

Compound: CNC(=O)c1cc(OC)ccc1Nc1ccc(N(C)c2ccc(C(F)(F)F)cc2)cc1 [CP-606]
- inhibition at 10 µM: 63%

Compound: COc1ccc(Nc2ccc(N(C)c3ccc(C(F)(F)F)cc3)cc2)c(C(=O)N(C)C)c1 [CP-607]
- inhibition at 10 µM: 37%

Compound: COc1ccc(Nc2ccc(N(C)c3ccc(C(F)(F)F)cc3)cc2)c(C#N)c1 [CP-608]
- inhibition at 10 µM: 43%

Compound: COc1ccc(Nc2cnc(N(C)c3ccc(C4CCCCC4)cc3)cc2C)c(C(=O)O)c1 [CP-609]
- inhibition at 10 µM: 54%

Compound: COc1ccc(Nc2ccc(N(C)c3cc(Cl)cc(Cl)c3)cc2)c(C(=O)O)c1 [CP-612]
- inhibition at 10 µM: 86%

Compound: CN(c1ccc(Nc2ccc(NS(C)(=O)=O)cc2C(=O)O)cc1)c1ccc(C(F)(F)F)cc1 [CP-613]
- inhibition at 10 µM: 83%

Compound: CNS(=O)(=O)c1ccc(Nc2ccc(N(C)c3ccc(C4CCCCC4)cc3)cc2C)c(C(=O)O)c1 [CP-614]
- inhibition at 10 µM: 83%

Compound: COc1ccc(Nc2ccc(Oc3ccc(S(F)(F)(F)(F)F)cc3Cl)nc2)c(C(=O)O)c1 [CP-615]
- inhibition at 10 µM: 82%

Compound: COc1ccc(Nc2cnc(Oc3ccc(C4CCCCC4)cc3Cl)nc2)c(C(=O)O)c1 [CP-616]
- inhibition at 10 µM: 73%

Compound: COc1ccc(Nc2ccc(N(C)c3ccc(C(F)(F)F)c(Cl)c3)cc2)c(C(=O)O)c1 [CP-617]
- inhibition at 10 µM: 76%

Compound: COc1ccc(Nc2ccc(N(C)c3cc(C4CCCCC4)nn3C)cc2)c(C(=O)O)c1 [CP-618]
- inhibition at 10 µM: 31%

Compound: Cc1cc(N(C)c2ccc(C3CCCCC3)cc2)ccc1Nc1ccc(NC2CCOCC2)cc1C(=O)O [CP-620]
- inhibition at 10 µM: 0%

Compound: Cc1cc(N(C)c2ccc(C3CCCCC3)cc2)ccc1Nc1ccc(N2CCOCC2)cc1C(=O)O [CP-621]
- inhibition at 10 µM: 47%

Compound: COc1ccc(Nc2ccc(N(C)c3ccc(SC(F)(F)F)cc3)cc2)c(C(=O)O)c1 [CP-622]
- inhibition at 10 µM: 94%

Compound: COc1ccc(Nc2ccc(C3CC3)cc2N(C)c2ccc(C3CCCCC3)cc2)c(C(=O)O)c1 [CP-623]
- inhibition at 10 µM: 73%

Compound: COc1ccc(Nc2ccc(N(C)c3cc(C(F)(F)F)nn3C)cc2)c(C(=O)O)c1 [CP-624]
- inhibition at 10 µM: 15%

Compound: Cc1cc(N(C)c2ccc(C3CCCCC3)cc2)ccc1Nc1ccc(F)cc1C(=O)O [CP-625]
- inhibition at 10 µM: 87%

Compound: Cc1cc(N(C)c2ccc(C3CCCCC3)cc2)ccc1Nc1ccc(N2CC3(COC3)C2)cc1C(=O)O [CP-627]
- inhibition at 10 µM: 51%

Compound: CCCCOc1ccc(Nc2ccc(N(C)c3ccc(C4CCCCC4)cc3)cc2C)c(C(=O)O)c1 [CP-628]
- inhibition at 10 µM: 40%

Compound: COc1ccc(Nc2ccc(N(C)c3ccc(C4CCCCC4)cc3)cc2C)c(C(F)(F)F)c1 [CP-629]
- inhibition at 10 µM: 24%

Compound: Cc1cc(N(C)c2ccc(C3CCCCC3)cc2)ccc1Nc1ccc(C2CC2)cc1C(=O)O [CP-630]
- inhibition at 10 µM: 39%

Compound: Cc1ccc(Nc2ccc(N(C)c3ccc(C4CCCCC4)cc3)cc2C)c(C(=O)O)c1 [CP-631]
- inhibition at 10 µM: 81%

Compound: CNC(=O)c1ccc(Nc2ccc(N(C)c3ccc(C4CCCCC4)cc3)cc2C)c(C(=O)O)c1 [CP-632]
- inhibition at 10 µM: 73%

Compound: Cc1cc(N(C)c2ccc(C3CCCCC3)cc2)ccc1Nc1ccc(OCC(C)(C)C)cc1C(=O)O [CP-633]
- inhibition at 10 µM: 25%

Compound: Cc1cc(N(C)c2ccc(C3CCCCC3)cc2)ccc1Nc1ccc(OC2CCCCC2)cc1C(=O)O [CP-634]
- inhibition at 10 µM: 32%

Compound: Cc1cc(N(C)c2ccc(C3CCCCC3)cc2)ccc1Nc1ccc(CN)cc1C(=O)O [CP-635]
- inhibition at 10 µM: 27%

Compound: Cc1cc(N(C)c2ccc(C3CCCCC3)cc2)ccc1Nc1cccc(C(=O)O)n1 [CP-636]
- inhibition at 10 µM: 68%

Compound: CNCc1ccc(Nc2ccc(N(C)c3ccc(C4CCCCC4)cc3)cc2C)c(C(=O)O)c1 [CP-637]
- inhibition at 10 µM: 5%

Compound: O=C(O)c1cccc(NC(=O)c2ccc(Nc3ccc(C4CCCCC4)cc3)cc2)c1 [CP-638]
- inhibition at 10 µM: 67%

Compound: Cc1cc(N(C)c2ccc(C3CCCCC3)cc2)ccc1Nc1ccc(CN(C)C)cc1C(=O)O [CP-640]
- inhibition at 10 µM: 20%

Compound: O=C(O)c1cccc(Nc2cc(Nc3ccc(C4CCCCC4)cc3)cc(C(F)(F)F)c2)n1 [CP-641]
- inhibition at 10 µM: 69%

Compound: Cc1cc(C(=O)Nc2ccc(C3CCCCC3)cc2)ccc1Nc1cccc(C(=O)O)n1 [CP-642]
- inhibition at 10 µM: 55%

Compound: CN(c1ccc(C2CCCCC2)cc1)c1ccc(Nc2cccc(C(=O)O)n2)cn1 [CP-643]
- inhibition at 10 µM: 89%

Compound: Cc1cc(N(C)c2ccc(OCC(F)(F)F)cc2)ccc1Nc1cccc(C(=O)O)n1 [CP-646]
- inhibition at 10 µM: 39%

Compound: Cc1cc(N(C)c2ccc(OC(F)(F)F)cc2)ccc1Nc1cccc(C(=O)O)n1 [CP-647]
- inhibition at 10 µM: 87%

Compound: CN(c1ccc(Nc2cccc(C(=O)O)n2)cc1)c1ccc(C(F)(F)F)cc1 [CP-648]
- inhibition at 10 µM: 89%

Compound: Cc1cc(Nc2ccc(C3CCCCC3)cc2)ccc1C(=O)Nc1cccc(C(=O)O)c1 [CP-649]
- inhibition at 10 µM: 99%

Compound: COc1ccc(Nc2ccc(Nc3ccc(C45CC6CC(CC(C6)C4)C5)cc3Cl)cc2)nc1C(=O)O [CP-650]
- inhibition at 10 µM: 93%

Compound: Cc1cc(C(=O)Nc2cccc(C(=O)O)c2)ccc1Nc1ccc(C2CCCCC2)cc1 [CP-651]
- inhibition at 10 µM: 85%

Compound: Cc1cc(N(C)c2ccc(C3CCCCC3)cc2)ncc1Nc1cccc(C(=O)O)n1 [CP-652]
- inhibition at 10 µM: 37%

Compound: CNC(=O)c1nc(Nc2ccc(N(C)c3ccc(C4CCCCC4)cc3)cc2C)ccc1S(=O)(=O)NC [CP-653]
- inhibition at 10 µM: 24%

Compound: COc1ccc(Nc2ccc(N(C)c3ccc(C4CCCCC4)cc3)nc2)nc1C(=O)O [CP-654]
- inhibition at 10 µM: 36%

Compound: CNS(=O)(=O)c1ccc(Nc2ccc(N(C)c3ccc(C4CCCCC4)cc3)cc2C)nc1C(=O)O [CP-656]
- inhibition at 10 µM: 90%

Compound: CNS(=O)(=O)c1ccc(Nc2ccc(N(C)c3ccc(C4CCCCC4)cc3)cc2C)c(C#N)c1 [CP-657]
- inhibition at 10 µM: 18%

Compound: CN(c1ccc(Nc2cccc(C(=O)O)n2)cn1)c1ccc(C2CCCCC2)cc1Cl [CP-659]
- inhibition at 10 µM: 46%

Compound: O=C(O)c1cccc(Nc2cc(Nc3ccc(C4CCCCC4)cc3Cl)cc(C(F)(F)F)c2)n1 [CP-660]
- inhibition at 10 µM: 66%

Compound: COc1ccc(Nc2cc(Nc3ccc(C4CCCCC4)cc3)cc(C(F)(F)F)c2)nc1C(=O)O [CP-661]
- inhibition at 10 µM: 77%

Compound: O=C(O)c1cccc(Nc2cc(Nc3ccc(C4CCCCC4)cc3)cc(C(F)(F)F)c2)c1 [CP-662]
- inhibition at 10 µM: 88%

Compound: CN(c1ccc(C2CCCCC2)cc1)c1cc(C2CC2)c(Nc2cccc(C(=O)O)n2)cn1 [CP-663]
- inhibition at 10 µM: 45%

Compound: O=C(Nc1ccc(C2CCCCC2)cc1)c1cccc(Nc2ccccc2C(=O)O)c1 [CP-664]
- inhibition at 10 µM: 50%

Compound: O=C(Nc1ccc(C2CCCCC2)cc1Cl)c1cccc(Nc2ncccc2C(=O)O)c1 [CP-665]
- inhibition at 10 µM: 96%

Compound: O=C(Nc1ccc(C2CCCCC2)cc1Cl)c1cccc(Nc2ccccc2C(=O)O)c1 [CP-666]
- inhibition at 10 µM: 79%
